From patent US11098053B2, “Enhanced osteogenic activity of daidzein analogs on human mesenchymal stem cells” (THE ADMINISTRATORS OF THE TULANE EDUCATIONAL FUND, priority 2013, dated 2021)
pIC50: −log10 of the molar value. “Also recorded” adds a separate entry of the source.

System: Human bone marrow derived mesenchymal stem cells (MSCs)
Test: Osteogenic differentiation of MSCs (Alizarin Red calcium deposition)
Settings: for osteogenic activity (structure-activity summary, in words): donor MSCs; for osteogenic activity (structure-activity summary, in words) / osteogenesis averaged over all three donors, relative to vehicle treated MSCs / cytotoxicity to donor MSCs: 1 μM; for induction category of osteogenic differentiation (no, low, high induction): screen, MSCs from one donor (Donor 1), analogs and daidzein 1 μM, estrogen 10 nM; for cytotoxicity to donor MSCs: MSCs from three donors (toxic in Donor 2 and Donor 3)

SMILES	osteogenic activity (structure-activity summary, in words) (14 days)	also measured
CCOc1ccc2c(=O)c(-c3ccc(O)cc3)coc2c1 [2b, 7-Ethoxy-3-(4-hydroxyphenyl)-4H-chromen-4-one]	modest osteogenic activity	–
O=c1c(-c2ccc(O)cc2)coc2cc(OCCN3CCCC3)ccc12 [2j, 3-(4-Hydroxyphenyl)-7-(2-(pyrrolidin-1-yl)ethoxy)-4H-chromen-4-one]	no osteogenic effect	–
CCCCOc1ccc2c(=O)c(-c3ccc(O)cc3)coc2c1 [2e, 7-Butoxy-3-(4-hydroxyphenyl)-4H-chromen-4-one]	marked enhancement; also recorded: over two-fold increase	induction category of osteogenic differentiation (no, low, high induction) (14 days): high inducers; osteogenesis averaged over all three donors, relative to vehicle treated MSCs (14 days): 2.3±0.33
CC(C)COc1ccc2c(=O)c(-c3ccc(O)cc3)coc2c1 [2f, 3-(4-Hydroxyphenyl)-7-isobutoxy-4H-chromen-4-one]	marked enhancement	differentiation at day 7 (day 7): enhanced differentiation at day 7; IC50 (analog concentration required to achieve 1.5 fold relative bone differentiation) (donor 3, 1 nM-1 μM, 14 days): 1.38 μM; pIC50 (read-out: IC50 averaged among the three donors, mean of three donors, 14 days): 6.30; induction category of osteogenic differentiation (no, low, high induction) (14 days): high inducers; osteogenesis averaged over all three donors, relative to vehicle treated MSCs (14 days): 1.8±0.48
COc1ccc(NC(=O)c2ccc(OC)cc2OC)cc1 [12a, 2,4-Dimethoxy-N-(4-methoxyphenyl)benzamide]	strong osteogenic activity	induction category of osteogenic differentiation (no, low, high induction) (14 days): high inducers
CC1(C)C=Cc2cc3c(cc2O1)OCC(c1ccc(O)cc1)C3 (stereo not shown) [compound 10, 4-(8,8-Dimethyl-2,3,4,8-tetrahydropyrano[3,2-g]chromen-3-yl)phenol]	–	osteogenesis averaged over all three donors, relative to vehicle treated MSCs (14 days): 2.2±0.19
CC1(C)CCc2c(ccc3c2OCC(c2ccc(O)cc2)C3)O1 (stereo not shown) [compound 5, 4-(8,8-Dimethyl-2,3,4,8,9,10-hexahydropyrano[2,3-f]chromen-3-yl)phenol]	no discernible osteogenic activity	–
CN(C)CCOc1ccc2c(=O)c(-c3ccc(O)cc3)coc2c1 [2k, 7-(2-(Dimethylamino)ethoxy)-3-(4-hydroxyphenyl)-4H-chromen-4-one]	no osteogenic effect	–
COc1ccc2c(=O)c(-c3ccc(O)cc3)coc2c1 [2a, 3-(4-Hydroxyphenyl)-7-methoxy-4H-chromen-4-one]	modest osteogenic activity	–
COc1ccc(C(=O)Nc2ccc(O)cc2)c(OC)c1 [compound 11, N-(4-Hydroxyphenyl)-2,4-dimethoxybenzamide]	not active at all	–
O=c1c(-c2ccc(O)cc2)coc2cc(OCCN3CCCCC3)ccc12 [2i, 3-(4-Hydroxyphenyl)-7-(2-(piperidin-1-yl)ethoxy)-4H-chromen-4-one]	–	cytotoxicity to donor MSCs (14 days): cytotoxic; also recorded: potent toxicity to two donors; induction category of osteogenic differentiation (no, low, high induction) (14 days): high inducers
CCCCOc1ccc2c(c1)OCC(c1ccc(O)cc1)C2 (stereo not shown) [compound 9, 4-(7-Butoxychroman-3-yl)phenol]	no osteogenic activity	–
CCCOc1ccc2c(=O)c(-c3ccc(O)cc3)coc2c1 [2d, 3-(4-Hydroxyphenyl)-7-propoxy-4H-chromen-4-one]	modest osteogenesis	cytotoxicity to donor MSCs (14 days): cytotoxic; also recorded: toxicity to two donor cells
COc1ccc(C(=O)Nc2ccc(OCC(C)C)cc2)c(OC)c1 [12b, N-(4-Isobutoxyphenyl)-2,4-dimethoxybenzamide]	not active at all	–
Cc1cc2c(ccc3c(=O)c(-c4ccc(O)cc4)coc32)o1 [compound 7, 3-(4-hydroxyphenyl)-8-methyl-4H-furo[2,3-h]chromen-4-one]	modest potential	–
